Test results as given in patent US20110152207A1, “USE OF VITAMIN D GLYCOSIDES AND SULFATES FOR TREATMENT OF DISEASE” (priority 2009, published 2011).
Marks after values point to notes of the source that are not given here.

How the values were obtained:
[1] = calcitriol = 1; cited from earlier work
[2] = Hypercalcemic effect: plasma calcium in rats under continuous subcutaneous infusion; assay type: in vivo; conditions: for Plasma Calcium Mean ± SD: 12th day, in mg/dL (unit assumed)
Procedure: The pumps were filled aseptically with the appropriate dose of drug dissolved in propylene glycol. The pumps were surgically implanted under the skin on the dorsal neck and shoulder area aseptically. On the 12th day of infusion, rats were deeply anesthetized (isofluorane inhalation) and blood was collected by cardiac puncture for plasma calcium determination. The plasma calcium levels were determined by standard methods.

[3] = test system: β-glucuronidase activity, duodenum lumen contents; assay: β-glucuronidase cleavage in duodenum lumen contents, free 1,25-D3 by RIA; assay type: in vitro ADME, rats; conditions: 150 pg added
Procedure: (§3) The proximal 25 cm of duodenum/jejunum, the caudal 12 cm of ileum, and the cranial 12 cm of colon were removed. The contents from the lumen of each section were flushed with 3 ml water, collected, and pooled. Three-ml aliquots of intestinal contents were placed into tubes. To the tubes, either 2100 pg (3.53 pmoles) β-gluc-1,25-D3 was added and incubated at 37° C. for 0, 1, 3, or 6 hrs, or 150 pg (0.36 pmoles) of 1,25-D3 was added and incubated for 0 or 6 hrs. […] Acetonitrile (3 ml) was added to each tube after incubation to end all enzymatic activity, after which the 1,25-D3 was extracted. Tritiated 1,25-D3 was added to each tube to assess extraction efficiency. The preparations were cleaned by HPLC, and the samples were analyzed for 1,25-D3 content by RIA (Heartland Assays, Ames, Iowa) (Hollis et al., J. Steroid Biochem. Mol. Biol. 2007 103(3-5):473-6).

[4] = test system: β-glucuronidase activity, ileum lumen contents; assay: β-glucuronidase cleavage in ileum lumen contents, free 1,25-D3 by RIA; assay type: in vitro ADME, rats; conditions: 150 pg added
Procedure: as §3

Cyp24 [5] = assay: Cyp24 mRNA expression in colon of mice after a single oral dose; assay type: in vivo; conditions: 6 hrs
Procedure: (§1) Mice were decapitated 6 hrs later following light anesthesia under inhaled halothane. […] Tissue samples were flushed with ice-cold phosphate-buffered saline and immediately homogenized in 1 ml of TRIzol® reagent (Invitrogen Corp., Carlsbad, Calif.). Samples were then kept frozen at −86° C. prior to processing for RNA. For processing RNA, each TRIzol® homogenate was thawed at room temperature and 500 μl placed in a clean microfuge tube, mixed thoroughly with 100 μl chloroform for 15 sec and then centrifuged at 12,000×g for 15 min at 4° C. The upper aqueous phase was removed and mixed with 0.93 volumes of 75% EtOH. The mixture was then applied to an RNeasy spin column (Qiagen Inc., Germantown, Md.) and processed as described by the manufacturer with the exception that an additional wash with 2M NaCl/2 mM EDTA (pH 4.0) was included (Das et al. J Vet Diagn Invest. 2009; 21:771-778). RNA was eluted in 50 μl of water and the concentration obtained by UV spectrometry. One microgram of RNA was then used as a template for production of cDNA in a 20-μl reaction volume using random hexamers and Superscript III as described by the manufacturer (Invitrogen, Carlsbad, Calif.). Afterwards, samples were diluted to 100 μl final volume with TE buffer and stored at −20° C. prior to PCR analysis. Quantitative real-time RT-PCR was performed using a Stratagene Mx3005p cycler (Stratagene, La Jolla, Calif.) and PerfeCTa® SYBR® Green FastMix®, ROX reagent (Quanta Biosciences, Gaithersburg, Md.). Amplification of target cDNAs was accomplished with the following primers: Aliquots (8.3 ng) of cDNA were amplified under the following conditions: 95° C. for 30 sec, followed by 45 cycles of 95° C. for 1 sec and 57° C. for 30 sec. […] Oligonucleotides were obtained from Integrated DNA Technologies (Coralville, Iowa).

Cyp24 [6] = assay: Cyp24 mRNA expression in duodenum of mice after a single oral dose; assay type: in vivo; conditions: for Cyp24 expression in the duodenum, induction over control mice: 24 pmol per os
Procedure: as §1

[7] = test system: DSS-induced inflammation of the lower colon; assay: Dextran sodium sulfate (DSS) mouse model of IBD; assay type: in vivo; conditions: DSS mice
Text: (§2) In this example, β-gluc-1,25-D3 compounds, alone or in combination with 25-β-glucuronide-25-hydroxyvitamin D3 compounds (hereinafter β-gluc-25-D3) were incorporated into the diet of mice and compared to equimolar 1,25-D3 with respect to therapeutic effects on IBD and induction of calcemia. A standard mouse model of IBD comprising administering dextran sodium sulfate (DSS) to induce inflammation of the lower colon was used to study these effects. Vitamin D treatments were first initiated for 4 days. After 4 days, mice were fed DSS-water for 7 days, allowed one day to recover, and sacrificed. Colon length, plasma calcium, fecal blood score, and body weight were assayed. Colon length is a standard marker of intestinal inflammation in the literature, with shortened colon length being an indicator of inflammation. A 1-cm section of the mid-colon was removed, fixed in formalin, and stained with hematoxylin & eosin for microscopic histopathologic evaluation by a veterinary pathologist blinded to the treatments. Each tissue section received a score from 0 to 4 reflecting absence of lesion to severe, extensive lesion for each of three criteria: (1) the degree of erosion/ulceration of colon mucosa; (2) the degree of infiltration of the tissues by inflammatory cells; and (3) the degree of submucosal edema. The sum of the score of each of these criteria constitutes the histopathological score for the tissue with a zero score representing normal tissue based on all criteria, and the worst possible outcome being a score of 12.

LNCaP cells = assay: LNCaP cell proliferation (CELLTITER BLUE); assay type: cell-based, human; conditions: six days, control = 100
Procedure: LNCaP cells (ATCC # CRL-1740) are malignant prostate cancer cells originally obtained from a lymph node of a person whose prostatic cancer had metastasized to the lymph node. LNCaP cells were grown in tissue culture using RPMI-1640 media with 10% fetal bovine serum. Wells of two 48-well tissue culture plates were seeded with 5000 LNCaP cells/well. […] Half the media was replaced with fresh media with treatments on the third day of the treatment period. By day 6 of treatment, wells of control untreated cells were approximately 60% confluent. The live cell numbers in each well at the end of treatment were assessed using the “CELLTITER BLUE”-brand assay kit (Promega Corp., Madison, Wis.). The assay is based on the ability of living cells to convert a redox dye (resazurin) into a fluorescent end product (resorufin).

DU-145 cells = assay: DU-145 cell proliferation (CELLTITER BLUE); assay type: cell-based, human; conditions: 4 days, control = 100
Procedure: LNCaP cells (ATCC # CRL-1740) are malignant prostate cancer cells originally obtained from a lymph node of a person whose prostatic cancer had metastasized to the lymph node. LNCaP cells were grown in tissue culture using RPMI-1640 media with 10% fetal bovine serum. Wells of two 48-well tissue culture plates were seeded with 5000 LNCaP cells/well. […] Half the media was replaced with fresh media with treatments on the third day of the treatment period. By day 6 of treatment, wells of control untreated cells were approximately 60% confluent. The live cell numbers in each well at the end of treatment were assessed using the “CELLTITER BLUE”-brand assay kit (Promega Corp., Madison, Wis.). The assay is based on the ability of living cells to convert a redox dye (resazurin) into a fluorescent end product (resorufin). […] A similar study was performed using a second human-derived prostatic cancer cell line known as DU-145 (ATCC# HTB-81). […] Exp. Med. Biol. 1995 375:53-63). The DU-145 cells were propagated in Eagle's Minimum Essential Medium with 10% fetal bovine serum. The cells were treated in culture for just 4 days, with half the media replaced with fresh media on day 3 of treatment. Cells were 40% confluent at the end of treatment.

intestinal inflammation = conditions: Froicu et al., cited from earlier work
[8] = Plasma 1,25-D3 concentration in mice after a single oral dose (RIA)
[9] = Plasma calcium in the DSS mouse model of IBD; assay type: in vivo; conditions: DSS mice, 5000 ng/day in diet
Text: as §2

In the case of `C=C1/C(=C\C=C2/CCC[C@]3(C)[C@@H]([C@H](C)/C=C/[C@@H](O)C4CC4)CC[C@@H]23)C[C@@H](O)CC1O` (stereo partly drawn) [calcipotriol], the calcemic index [1] is given as “about 0.01”.

In the case of `C=C1/C(=C\C=C2/CCC[C@]3(C)[C@@H]([C@H](C)CCCC(C)(C)O)CC[C@@H]23)C[C@@H](O)C[C@@H]1O` [1,25-D3, 1,25-dihydroxyvitamin D3, reference compound], the “Plasma Calcium Mean ± SD” value ([2]; 10 ng/day continuous s.c. infusion) is reported as 10.41 ± 0.27, the “Plasma Calcium Mean ± SD” value ([2]; 15 ng/day continuous s.c. infusion) is reported as 10.78 ± 0.26 and the “lowest dose inducing a statistically significant increase in plasma calcium levels” value ([2]; continuous s.c. infusion) is reported as 15 ng/day. The “Significantly greater than control? Duncan's Multiple Range Test” value ([2]; plasma calcium, 15 ng/day) was “Yes”, the “Measured Free 1,25-dihydroxy vitamin D” value ([3]; 0 hrs incubation, 37° C.) was 96 pg and the “Measured Free 1,25-dihydroxy vitamin D” value ([3]; 6 hrs incubation) was 117 pg. For the same compound, the “Measured Free 1,25-dihydroxy vitamin D” value ([4]; 0 hrs incubation) was 129 pg, the “Measured Free 1,25-dihydroxy vitamin D” value ([4]; 6 hrs incubation) was 128 pg and the “increase in Cyp24 in the colon over control mice” value (Cyp24 [5]; 24 pmol per os) was “about 5 fold”. For the same compound, the “increase in Cyp24 expression in the colon” value (Cyp24 [5]; 48 pmol per os, relative to untreated mice) was ~4.8±4 fold, the “Cyp24 expression in the duodenum, induction over control mice” value (shortened to “Cyp24 expression … over control mice”) (Cyp24 [6]; 1 hour) was 350 fold and the “Cyp24 expression … over control mice” value (Cyp24 [6]; 3 hours) was 1600 fold. The “Cyp24 expression … over control mice” value (Cyp24 [6]; 6 hours) was “more than 2500 fold”, the “induction of Cyp24 gene expression in the duodenum” value (Cyp24 [6]; 48 pmol per os, 6 hrs) was > 1000 fold and the “Colon Length” value ([7]; 10 ng/day in diet) was 5.52 ± 0.20 cm. The “Final Body Weight” value ([7]; 10 ng/day in diet) was 21.39 ± 0.82 g, the “Fecal Blood Score” value ([7]; 10 ng/day, 0 = no blood to 3 = multiple blood spots) was 0.33 ± 0.12^c and the “Histopathology score (0-12)” value ([7]; 10 ng/day, 0 = no lesions, 12 = severe) was 7.44 ± 0.50. For the same compound, the “Histopathology score (0-12)” value ([7]; 50 ng/day) was 5.89 ± 0.54^c, the “histopathological scores among the effective treatments” value ([7]; 50 ng/day) was “numerically the best” and the “improving inflammation” value ([7]; 50 ng/day) was “less effective than the 70-ng/day β-gluc-1,25-D3 plus 5000 ng/day β-gluc-25-D3 combination treatment”. The “Colon Length” value ([7]; 50 ng/day in diet) was 5.74 ± 0.17 cm, the “Final Body Weight” value ([7]; 50 ng/day in diet) was 20.82 ± 0.43 g and the “Fecal Blood Score” value ([7]; 50 ng/day, scale 0-3) was 0.22 ± 0.12^c. The “Proliferation index (Mean ± SEM)” value (LNCaP cells; 20 nM) was 69.7 ± 8.4, the “Proliferation index (Mean ± SEM)” value (LNCaP cells; 100 nM) was 63.8 ± 7.3 and the “Proliferation index (Mean ± SEM)” value (DU-145 cells; DU-145, 20 nM) was 94.7 ± 1.7. The “Proliferation index (Mean ± SEM)” value (DU-145 cells; DU-145, 100 nM) was 89.3 ± 2.4, the “hypercalcemia at the effective dose” value (intestinal inflammation; 50 ng) was “results in hypercalcemia” and the “dose required to improve intestinal inflammation” value (intestinal inflammation; mouse model of inflammatory disease) was 50 ng. The “plasma 1,25-D3 concentration” value ([8]; 6 pmol per os, 6 hr time point) was “not significantly increased”, the “peak plasma 1,25-D3, fold over control mouse plasma 1,25-D3” value ([8]; 24 pmol per os) was ~14 fold and the “peak plasma concentration of 1,25-D3” value ([8]; 24 pmol per os) was 1280 pg/mL. The “time of peak plasma 1,25-D3 concentration” value ([8]; 24 pmol per os) was 1 h and the “plasma 1,25-D3 concentration” value ([8]; 24 pmol per os, 24 hrs after treatment) was “slightly below the concentration observed in control animals”.

In the case of “25-β-glucuronide-25-hydroxyvitamin D3 [β-gluc-25-D3]”, the “Histopathology score (0-12)” value ([7]; 5000 ng/day) is reported as 8.22 ± 0.72, the “effect on IBD by itself” value ([7]; 5000 ng/day) is reported as “essentially ineffective by itself” and the “Colon Length” value ([7]; 5000 ng/day in diet) is reported as 5.50 ± 0.20 cm. For the same compound, the “Final Body Weight” value ([7]; 5000 ng/day in diet) was 21.16 ± 0.53 g, the “Fecal Blood Score” value ([7]; 5000 ng/day, scale 0-3) was 1.05 ± 0.34 and the “Plasma Calcium” value [9] was 8.68 ± 0.27^d mg/dl.
